Consider six compounds from patent US12509421B2, “Preparation and application of deuterated 4-phenyl-4-piperidinols” (priority 2022, dated 2025).

In general, IC50 refers to the concentration needed to halve the response being measured. As usually defined, the half-life is how long it takes for the measured level to halve. Higher therefore signals slow loss. For orientation: microsomal CLint means a measure of how fast metabolising enzymes remove a compound, apart from limits set by blood flow.

Data set [1] can be described thus: Metabolic stability in liver microsomes, dog. As to conditions: for half-life at 2 μM / microsomal CLint at 2 μM: dog, microsomes, pH 7.4. Here is the method:
The solution B is slowly dropped into solution A, and the pH is adjusted to 7.40±0.05.
• Control drug: 4 μL Verapamil solution (10 mM) is added with 96 μL DMSO and diluted to 400 μM; • Compound to be tested: 4 μL compound to be tested (10 mM) is added with 96 μL normal saline and diluted to 400 μM.
The microsomes are stored in the refrigerator at −80° C., thawed at room temperature after being taken out, and mixed gently.
[…] PBS (100 mm, pH=7.4) solution is added to the negative sample. The solution is put into water bath at 37° C. and pre-incubated for 10 minutes; • B) After incubation, 2 μL reference drug or compound to be tested (400 μM) are added into each well to start the reaction.
(In general: Microsomes from liver hold many membrane-bound enzymes, among them those of drug oxidation.)

Data set [2] concerns the target T1, μOR (Homo sapiens, UniProt P35372).
T1 construct: expressed in transfected cells; host or cells: CHO cells
Briefly: Opioid receptor competitive binding test, μOR. The settings on record: compound at 10 μM; [3H]-labeled ligand; CHO cell membranes; ± SD of three measurements. Here is the method:
CHO cells expressing p opioid receptor, δ opioid receptor and K opioid receptor are cultured in a 10 cm^2 Petri dish (F-12 medium+10% newborn bovine serum) for several days, and the culture solution is sucked after the cells grew to the bottom of the dish. 3 ml PBS/EDTA solution (0.1M NaCl, 0.01M NaH2PO4, 0.04% EDTA) is added for digestion for 3-5 minutes. The cells are blown with a straw to get fall off completely, collected in a 40 ml centrifuge tube, centrifuged at 5000 rpm for 5 minutes, and removed with the supernatant. The centrifuge tube is added with ice-cold homogenate (50 mM HEPES PH 7.4, 3 mM MgCl2, 1 mM EGTA). The solution and precipitate are transferred to homogenizer for homogenization; Then the homogenate is transferred into a centrifuge tube, centrifuged at 18000 rpm for 15 minutes, and centrifuged twice; the obtained precipitate is added with an appropriate amount of buffer solution of 50 mM Tris-HCl and pH 7.4, homogenized and sub-packaged in centrifuge tubes. The product is stored in a refrigerator at −70° C. for later use.
20-30 μg expressed membrane receptor protein and [3H]-labeled ligand (1-2 nM) are added to the total binding tube, added with 1 μM of corresponding ligand to the corresponding nonspecific binding tube. Various screened opioid ligand drugs (see the drug compounds in Table 1 below) are added to the sample tube with 100 μL final volume. The sample is incubated at 30° C. for 30 minutes, and the reaction is terminated in ice water. The glass fiber filter paper gF/C (whatman) is used for negative pressure filtration on Millipore sample collector. The sample is eluted with 4 ml 50 mm tris-HCl (pH 7.4) for three times, dried with the filter paper, put in 0.5 ml Eppendorf tube and added with 0.5 ml lipophilic scintillation liquid. The radioactive intensity is measured with PERKIN ELMER PRI-CARB 2910 liquid scintillation counter with calculation of the inhibition rate. The experiment is repeated for more than three times, with three compound tubes in each group. Inhibition rate(or binding rate)=(total binding rate dpm−sample tube dpm)/(total binding tube dpm-nonspecific binding tube dpm)×100%
IC50 is calculated with Prism 5.0 software. The Ki value is calculated according to the following formula: Ki=IC50/(1^+[L]/Kd), wherein [L] is the concentration of the added labeled ligand, and Kd is the equilibrium dissociation parameter of the labeled ligand.

The test system of data set [3] is ICR mice. Briefly: Evaluation of side effects of constipation (defecation time, number, weight). It is filed as in vivo. The settings on record: for Number of defecating animals: 10 mice per group; for Number of defecating animals / Fecal weight: within 5 hours; for Defecation time: first black stool; for Defecation time / water content of feces / Fecal weight: x ± SE; for Defecation time / water content of feces: only animals that defecate within 5 hours. Here is the method:
Constipation side effect is a common side effect of opioid drugs. This patent evaluates the possibility of constipation side effect by the influence of the compound on defecation time, defecation quantity and defecation weight of experimental animals.
ICR mice are randomly divided into 6 groups with 10 mice in each group after adaptive feeding. Fasting for 16-24 h, without stopping drinking, the blank control group is given solvent, during which the normal diet is: (1) the blank control group; (2) Compound diphenoxylate (7.5 mg/kg) group; (3) Low dose (1 mg/kg) group; (4) High dose (5 mg/kg) group of the compound to be tested.
After administration for 30 minutes, the mice in each group are given Chinese ink by gavage. After administration, the mice are kept in a single cage, and the excretion time of the first black stool is recorded. The number and weight (wet weight) of defecation particles in each mouse within 5 hours after administration are recorded. each group of mice are placed in an IVC cage with clean filter paper. The feces of each mouse are collected, put into a sterile 1.5 ml EP tube and stored in an ice box. During the collection, the number of defecation particles of each mouse is recorded, and the wet weight is weighed. After the collected feces are dried, the dry weight of the feces is recorded. Drying conditions: put fresh feces in an oven and bake at 100° C. for 5-10 minutes until the dry weight of feces is constant. The following formula is used to calculate the water content of feces, and the water content of feces (%)=(wet feces mass−dry feces mass)/wet feces mass×100%.
The data required for measurement and observation in this experiment are recorded in the corresponding table. All data are statistically processed by Microsoft Excel, and expressed as “mean standard error”. The data of each group are statistically analyzed by SPSS software package.

Data set [4] has as its target CYP 3A4 (Homo sapiens, UniProt P08684). The data set can be described thus: biochemical. The settings on record: CYP 3A4 IC50, human liver microsomes.
Data set [5] deals with T2, CYP 1A2 (Homo sapiens, UniProt P05177).
T2 sequence (P05177 1-516): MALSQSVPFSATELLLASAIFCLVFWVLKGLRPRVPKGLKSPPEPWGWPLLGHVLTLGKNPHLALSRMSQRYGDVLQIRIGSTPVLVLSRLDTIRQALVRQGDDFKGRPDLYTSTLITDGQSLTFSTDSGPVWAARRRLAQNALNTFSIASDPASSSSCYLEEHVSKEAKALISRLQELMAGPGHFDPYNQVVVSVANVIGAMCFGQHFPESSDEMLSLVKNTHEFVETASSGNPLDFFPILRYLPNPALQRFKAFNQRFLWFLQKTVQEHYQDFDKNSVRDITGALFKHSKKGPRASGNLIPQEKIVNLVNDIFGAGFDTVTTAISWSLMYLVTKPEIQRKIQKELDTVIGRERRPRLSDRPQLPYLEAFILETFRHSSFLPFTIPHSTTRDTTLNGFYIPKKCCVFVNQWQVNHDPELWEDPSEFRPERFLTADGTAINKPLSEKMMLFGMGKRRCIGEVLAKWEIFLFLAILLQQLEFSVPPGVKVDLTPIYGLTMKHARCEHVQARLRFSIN
The data set can be described thus: Inhibition of cytochrome P450 enzyme in human liver microsomes, CYP 1A2.

[6] abbreviates: Dog liver microsomes 0.5 mg/mL, NADPH 1 mM, compound 2 μM.

Counter-ions that a name gives are not always drawn. Some results are limits rather than exact numbers.

T1 sequence (P35372 whole entry): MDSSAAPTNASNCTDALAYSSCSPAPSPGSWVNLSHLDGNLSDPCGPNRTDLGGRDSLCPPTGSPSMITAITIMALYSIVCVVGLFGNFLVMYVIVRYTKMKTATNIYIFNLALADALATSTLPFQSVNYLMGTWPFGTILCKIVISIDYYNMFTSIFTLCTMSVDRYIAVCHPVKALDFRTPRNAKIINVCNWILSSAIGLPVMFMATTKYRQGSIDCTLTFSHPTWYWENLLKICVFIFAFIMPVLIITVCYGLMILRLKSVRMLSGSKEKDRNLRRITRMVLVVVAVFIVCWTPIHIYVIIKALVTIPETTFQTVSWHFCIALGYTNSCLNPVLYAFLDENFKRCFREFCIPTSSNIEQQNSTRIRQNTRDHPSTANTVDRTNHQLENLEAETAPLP
CYP 3A4, sequence (P08684 whole entry): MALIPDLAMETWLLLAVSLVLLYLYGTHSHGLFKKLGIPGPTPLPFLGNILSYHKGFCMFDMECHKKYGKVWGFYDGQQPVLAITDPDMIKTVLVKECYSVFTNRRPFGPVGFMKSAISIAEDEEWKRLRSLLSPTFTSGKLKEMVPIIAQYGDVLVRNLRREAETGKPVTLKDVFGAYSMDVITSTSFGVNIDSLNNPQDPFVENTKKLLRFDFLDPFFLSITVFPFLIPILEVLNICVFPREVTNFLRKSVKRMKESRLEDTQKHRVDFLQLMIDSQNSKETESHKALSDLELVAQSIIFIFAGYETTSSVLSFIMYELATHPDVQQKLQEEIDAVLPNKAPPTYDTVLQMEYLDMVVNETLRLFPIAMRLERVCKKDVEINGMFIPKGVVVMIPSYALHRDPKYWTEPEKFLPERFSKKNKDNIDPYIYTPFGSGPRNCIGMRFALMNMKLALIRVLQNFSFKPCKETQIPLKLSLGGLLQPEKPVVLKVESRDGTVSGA

In data set [1] (setting [6]), `COc1cccc([C@]2(O)CCN(S(=O)(=O)Cc3ccccc3)C[C@H]2CN(C)C)c1.Cl` [Example 20 of CN201911076305.X, reference compound] showed a CLint of 839.02 μL/min/mg protein and a t1/2 of 1.65 min. The compound further returned a μOR binding rate in data set [2] of 27.52 ± 1.54%. For the same compound, in data set [3] (1 mg/kg), the “Number of defecating animals” value was 9, the Defecation time turned out to be 281 ± 4 min, the “water content of feces” value is given as 19.6 ± 4.5% and the Fecal weight amounted to 0.1243 ± 0.0153 g. Moreover, the “Number of defecating animals” value in data set [3] (5 mg/kg, hydrochloride) was 0. In addition, the “Number of defecating animals” value in data set [3] (5 mg/kg, listed as Example 20 in patent CN201911076305.X, hydrochloride) was “did not defecate”. Besides, in data set [3] (5 mg/kg), the “water content of feces” value is 0% and the Fecal weight was 0 g. In addition, the “constipation in experimental animals” value in data set [3] (comparative experiments of the inventor) was “can cause constipation in experimental animals in a dose-dependent manner”.

As to `[2H]C([2H])([2H])N(C)C[C@@H]1CN(S(=O)(=O)Cc2ccccc2)CC[C@@]1(O)c1cccc(OC)c1` [II-1hydrochloride], half-maximal inhibition in data set [4] (substrate midazolam) (IC50) was put at 42.9 µM. Also, the IC50 in data set [4] (substrate testosterone) was found to be 41.9 µM. Moreover, in data set [5], the IC50 was > 50 µM. Also, in data set [1], the half-life at 2 μM is 5.01 min and the microsomal CLint at 2 μM was found to be 605 µL/min/mg. Further, the μOR binding rate in data set [2] is 27.9 ± 1.3%. In data set [3] (1 mg/kg), the “Number of defecating animals” value came out at 9, the Defecation time is recorded as 105.9 ± 10.5 min, the “water content of feces” value stood at 43.5 ± 2.6% and the Fecal weight is given as 0.3682 ± 0.0816 g. Besides, in data set [3] (5 mg/kg), the “Number of defecating animals” value stood at 3, the Defecation time is given as 202.4 ± 6.2 min, the “water content of feces” value stood at 38.2 ± 8.6% and the Fecal weight worked out at 0.0586 ± 0.0065 g.

In turn, `[2H]C([2H])([2H])N(C[C@@H]1CN(S(=O)(=O)Cc2ccccc2)CC[C@@]1(O)c1cccc(OC)c1)C([2H])([2H])[2H]` [II-3hydrochloride] registered a concentration for half-maximal inhibition (IC50) in data set [4] (substrate midazolam) of 46.8 µM. Moreover, in data set [4] (substrate testosterone), the IC50 came out at 43.6 µM. In addition, in data set [5], the IC50 was > 50 µM. In data set [1], this compound gave a half-life at 2 μM of 5.26 min and a microsomal CLint at 2 μM of 663 µL/min/mg. Besides, in data set [2], the μOR binding rate was determined as 28.2 ± 1.5%. In data set [3] (1 mg/kg), the “Number of defecating animals” value came to 8, the Defecation time was determined as 152.8 ± 4.1 min, the “water content of feces” value is 43.0 ± 2.1% and the Fecal weight amounted to 0.3396 ± 0.0965 g. In data set [3] (5 mg/kg), the “Number of defecating animals” value amounted to 2, the Defecation time was 243.6 ± 10.5 min, the “water content of feces” value is on record as 37.8 ± 8.9% and the Fecal weight was 0.0482 ± 0.0053 g.

For `[2H]C([2H])([2H])Oc1cccc([C@]2(O)CCN(S(=O)(=O)Cc3ccccc3)C[C@H]2CN(C([2H])([2H])[2H])C([2H])([2H])[2H])c1` [II-5hydrochloride], in data set [4] (substrate midazolam), the IC50 was > 50 µM. The IC50 in data set [4] (substrate testosterone) is > 50 µM. Besides, the IC50 in data set [5] is > 50 µM. In data set [1], this compound had a half-life at 2 μM of 6.03 min and a microsomal CLint at 2 μM of 720 µL/min/mg. In data set [2], this compound came in with a μOR binding rate of 27.1 ± 1.2%. In data set [3] (1 mg/kg), the “Number of defecating animals” value is reported as 8, the Defecation time turned out to be 160.1 ± 9.9 min, the “water content of feces” value is listed as 42.7 ± 1.9% and the Fecal weight is listed as 0.3389 ± 0.0902 g. Further, in data set [3] (5 mg/kg), the “Number of defecating animals” value stood at 2, the Defecation time is listed as 202.8 ± 4.2 min, the “water content of feces” value was 37.6 ± 8.6% and the Fecal weight came out at 0.0478 ± 0.0061 g.

In turn, `[2H]C([2H])([2H])N(C)C[C@@H]1CN(C(=O)Cc2cc(F)c(F)cc2F)CC[C@@]1(O)c1cccc(OC)c1` [II-7hydrochloride, 1-((3R,4S)-4-hydroxy-4-(3-methoxyphenyl)-3-(((methyl-d3)amino)methyl)-1-piperidinyl)-2(2,4,5-trifluorophenyl)ethyl-1-one] had an IC50 in data set [4] (substrate midazolam) of 49.7 µM. Besides, in data set [4] (substrate testosterone), inhibition was half-maximal at 47.5 µM (IC50). Moreover, in data set [5], the IC50 is > 50 µM. In addition, in data set [1], the half-life at 2 μM is 5.25 min and the microsomal CLint at 2 μM is 669 µL/min/mg. For the same compound, the μOR binding rate in data set [2] was determined as 26.1 ± 2.3%. Moreover, in data set [3] (1 mg/kg), the “Number of defecating animals” value is on record as 9, the Defecation time stood at 109.0 ± 8.8 min, the “water content of feces” value came out at 44.8 ± 3.2% and the Fecal weight came out at 0.3846 ± 0.0798 g. In data set [3] (5 mg/kg), the “Number of defecating animals” value is listed as 3, the Defecation time was 200.6 ± 7.9 min, the “water content of feces” value was 38.6 ± 7.9% and the Fecal weight is recorded as 0.0612 ± 0.0079 g.

For `[2H]C([2H])([2H])N(C[C@@H]1CN(C(=O)Cc2cc(F)c(F)cc2F)CC[C@@]1(O)c1cccc(OC)c1)C([2H])([2H])[2H]` [II-9hydrochloride], 48 µM corresponded to half-maximal inhibition in data set [4] (substrate midazolam) (IC50). In data set [4] (substrate testosterone), this compound gave an IC50 of 47 µM. Further, the IC50 in data set [5] was > 50 µM. In data set [1], this compound had a half-life at 2 μM of 5.19 min and an intrinsic metabolic clearance (microsomal CLint) at 2 μM of 659 µL/min/mg. This compound also gave a μOR binding rate in data set [2] of 27.1 ± 1.1%. For the same compound, in data set [3] (1 mg/kg), the “Number of defecating animals” value is on record as 8, the Defecation time turned out to be 182.6 ± 10.2 min, the “water content of feces” value amounted to 43.2 ± 2.5% and the Fecal weight was 0.3399 ± 0.0983 g. In data set [3] (5 mg/kg), the “Number of defecating animals” value was 2, the Defecation time was found to be 242.9 ± 11.9 min, the “water content of feces” value is listed as 37.9 ± 8.9% and the Fecal weight is listed as 0.0489 ± 0.0073 g.
